Measured values as given in patent publication US9682061B2, “Methods of treating bacterial infections using oritavancin” (THE MEDICINES COMPANY, priority 2009, dated 2017).
≈ marks a conversion by molar mass, not a printed value. Like-named read-outs stand apart in the source and are kept apart here.

Experiments:
S. aureus ATCC 29213 = assay: Broth microdilution MIC with arithmetic drug dilutions; assay type: cell-based, Staphylococcus aureus; settings: for MIC: Staphylococcus aureus, ATCC29213, mean
Protocol: (§1) Pooled sera from humans, mice and rats were obtained from Equitech-Bio (Kerrville, Tex.); pooled serum from beagle dogs was from Bioreclamation (Liverpool, N.Y.). ULTRA was prepared using Centricon Plus-50 ultrafilters (Millipore, Billerica, Mass.), whose molecular weight cutoff (50 kDa) excludes albumin. ORI stock solutions were prepared following CLSI M100-818 (Clinical and Laboratory Standards Institute. 2008. CLSI document M100-S18). Staphylococcus aureus ATCC 29213 was used as the test isolate at a final inoculum of ˜5×10^5 CFU/mL in both MIC and AUIC studies.
(§2) Arithmetic MICs: Broth microdilution MIC assays with Staphylococcus aureus ATCC 29213 were based on CLSI guidelines (Clinical and Laboratory Standards Institute, 2009, CLSI document M7-A7). Growth media were 95% serum:5% CAMHB and 95% serum ultrafiltrate:5% CAMHB. Arithmetic dilutions of oritavancin and comparators were used to increase precision of minimum inhibitory concentration (MIC) values relative to doubling dilutions. Percent binding in serum was calculated as follows: % Bound=(1−[mean MICultrafiltrate/mean MICserum]×100%

human serum protein = assay: Serum protein binding estimated from MIC shift, serum vs serum ultrafiltrate (human); assay type: in vitro ADME; settings: from mean MICs, broth microdilution, this study
Text: (§3) Avid binding of oritavancin (ORI) to filtration and dialysis membranes renders most protein binding methodologies unsuitable. To control for any impact of serum components on bacterial growth and antibiotic activity, MIC shifts (from arithmetic drug dilutions) and area under the inhibitory curve (AUIC) shifts (from time-kill assays) were quantified in the presence of serum (SER) compared to SER ultrafiltrate (ULTRA; free of albumin) to estimate ORI binding to serum. In this manner, the extent of reduction in oritavancin activity in serum was related to its degree of serum protein binding. The method was benchmarked using daptomycin and ceftriaxone (Lee et al., Antimicrob Agents Chemother. 35:2505-2508 (1991); Schmidt et al., Antimicrob Agents Chemother. 52:3994-4000 (2008); Yuk et al., Clin Pharmacokinet. 17:223-235 (1989); McKay et al., Evaluation of oritavancin activity in vitro in the presence of human and mouse serum, abstr P1854. Abstr. 19th European Congress of Clinical Microbiology and Infectious Diseases. European Society of Clinical Microbiology and Infectious Diseases, Basel, Switzerland, May 16, 2009).
as §1
as §2, with “Arithmetic dilutions of oritavancin and comparators were used to increase precision of minimum inhibitory concentration (MIC) values relative to doubling dilutions.” left out

mouse serum protein = assay: Serum protein binding estimated from MIC shift, serum vs serum ultrafiltrate (mouse); assay type: in vitro ADME; settings: mouse, serum
Text: as §3, §1
as §2, with “Arithmetic dilutions of oritavancin and comparators were used to increase precision of minimum inhibitory concentration (MIC) values relative to doubling dilutions.” left out

rat serum protein = assay: Serum protein binding estimated from MIC shift, serum vs serum ultrafiltrate (rat); assay type: in vitro ADME; settings: from mean MICs, broth microdilution, this study
Text: as §3, §1
as §2, with “Arithmetic dilutions of oritavancin and comparators were used to increase precision of minimum inhibitory concentration (MIC) values relative to doubling dilutions.” left out

beagle dog serum protein = assay: Serum protein binding estimated from MIC shift, serum vs serum ultrafiltrate (dog); assay type: in vitro ADME; settings: from mean MICs, broth microdilution, this study
Text: as §3, §1
as §2, with “Arithmetic dilutions of oritavancin and comparators were used to increase precision of minimum inhibitory concentration (MIC) values relative to doubling dilutions.” left out

plasma protein = settings: across tested species; Shaw et al. 2008; cited from earlier work
[1] = Serum protein binding estimated from MIC shift, serum vs serum ultrafiltrate (mouse); assay type: in vitro ADME; settings: pooled mouse serum compared with serum ultrafiltrate; mouse serum; from mean MICs, broth microdilution; this study; read-out: % Bound (protein binding estimate) (converted)
Text: as §3, §1
as §2, with “Arithmetic dilutions of oritavancin and comparators were used to increase precision of minimum inhibitory concentration (MIC) values relative to doubling dilutions.” left out

[2] = Serum protein binding from MIC shift, summary across species; assay type: in vitro ADME, human, mouse, rat, dog; settings: pooled serum compared with serum ultrafiltrate; serum from mouse, rat, and beagle dog; MIC shift; read-out: Serum protein binding estimates, range
Text: as §3, §1
as §2, with “Arithmetic dilutions of oritavancin and comparators were used to increase precision of minimum inhibitory concentration (MIC) values relative to doubling dilutions.” left out

human serum = settings: cited from earlier work
[3] = 95% dog serum + 5% CAMHB, read-out: MIC, Serum
[4] = 95% dog serum ultrafiltrate + 5% CAMHB, read-out: MIC, Ultrafiltrate
[5] = 95% human serum + 5% CAMHB, read-out: MIC, Serum
[6] = 95% human serum ultrafiltrate + 5% CAMHB, read-out: MIC, Ultrafiltrate
[7] = 95% mouse serum + 5% CAMHB, read-out: MIC, Serum
[8] = 95% mouse serum ultrafiltrate + 5% CAMHB, read-out: MIC, Ultrafiltrate
[9] = 95% rat serum + 5% CAMHB, read-out: MIC, Serum
[10] = 95% rat serum ultrafiltrate + 5% CAMHB, read-out: MIC, Ultrafiltrate
[11] = cation-adjusted Mueller-Hinton broth, CLSI conditions, Dog, read-out: MIC, CAMHB
[12] = cation-adjusted Mueller-Hinton broth, CLSI conditions, Human, read-out: MIC, CAMHB
[13] = cation-adjusted Mueller-Hinton broth, CLSI conditions, Mouse, read-out: MIC, CAMHB
[14] = cation-adjusted Mueller-Hinton broth, CLSI conditions, Rat, read-out: MIC, CAMHB
[15] = mean MIC in 95% dog serum / mean MIC in 95% dog serum ultrafiltrate
[16] = mean MIC in 95% human serum / mean MIC in 95% human serum ultrafiltrate
[17] = mean MIC in 95% mouse serum / mean MIC in 95% mouse serum ultrafiltrate
[18] = mean MIC in 95% rat serum / mean MIC in 95% rat serum ultrafiltrate

Row | Structure (SMILES) | MIC (S. aureus ATCC 29213; [3]) | MIC (S. aureus ATCC 29213; [4]) | MIC (S. aureus ATCC 29213; [5]) | MIC (S. aureus ATCC 29213; [6]) | MIC (S. aureus ATCC 29213; [7]) | MIC (S. aureus ATCC 29213; [8]) | MIC (S. aureus ATCC 29213; [9]) | MIC (S. aureus ATCC 29213; [10]) | MIC (S. aureus ATCC 29213; [11]) | MIC (S. aureus ATCC 29213; [12]) | MIC (S. aureus ATCC 29213; [13]) | MIC (S. aureus ATCC 29213; [14]) | Mean Fold MIC Increase (S. aureus ATCC 29213; [15]) | Mean Fold MIC Increase (S. aureus ATCC 29213; [16]) | Mean Fold MIC Increase (S. aureus ATCC 29213; [17]) | Mean Fold MIC Increase (S. aureus ATCC 29213; [18]) | % Bound (protein binding estimate) (human serum protein) | % Bound (protein binding estimate) (rat serum protein) | % Bound (protein binding estimate) (beagle dog serum protein) | further results
1 | CCCCCCCCCC(=O)N[C@@H](Cc1c[nH]c2ccccc12)C(=O)N[C@H](CC(N)=O)C(=O)N[C@@H](CC(=O)O)C(=O)N[C@@H]1C(=O)NCC(=O)N[C@@H](CCCN)C(=O)N[C@@H](CC(=O)O)C(=O)N[C@H](C)C(=O)N[C@@H](CC(=O)O)C(=O)NCC(=O)N[C@H](CO)C(=O)N[C@@H]([C@H](C)CC(=O)O)C(=O)N[C@@H](CC(=O)c2ccccc2N)C(=O)O[C@@H]1C [Daptomycin] | 2.5 µg/mL | 0.638 µg/mL | 3 µg/mL | 0.513 µg/mL | 12.5 µg/mL | 3 µg/mL | 1.56 µg/mL | 0.538 µg/mL | 1 µg/mL (≈ 0.617 µM) | 0.975 µg/mL (≈ 0.602 µM) | 0.975 µg/mL (≈ 0.602 µM) | 1.25 µg/mL (≈ 0.771 µM) | 3.9 fold | 5.8 fold | 4.2 fold | 2.9 fold | 82.9% | 65.6% | 74.5% | % Bound (protein binding estimate) (mouse serum protein): 76.0%
2 | CCCCCCCCCCNCCN[C@@]1(C)C[C@H](O[C@H]2[C@H](Oc3c4cc5cc3Oc3ccc(cc3Cl)[C@@H](O)[C@@H](NC(=O)[C@@H](CC(C)C)NC)C(=O)N[C@@H](CC(N)=O)C(=O)N[C@H]5C(=O)N[C@H]3C(=O)N[C@H](C(=O)N[C@H](C(=O)O)c5cc(O)c(CNCP(=O)(O)O)c(O)c5-c5cc3ccc5O)[C@H](O)c3ccc(c(Cl)c3)O4)O[C@H](CO)[C@@H](O)[C@@H]2O)O[C@@H](C)[C@H]1O [telavancin] |  |  |  |  |  |  |  |  |  |  |  |  |  |  |  |  |  |  |  | Plasma protein binding (plasma protein): approximately 90%
3 | CO/N=C(\C(=O)N[C@@H]1C(=O)N2C(C(=O)O)=C(CSc3nc(=O)c(=O)[nH]n3C)CS[C@H]12)c1csc(N)n1 [Ceftriaxone] | 1.38 µg/mL | 1.09 µg/mL | 38.8 µg/mL | 2.88 µg/mL | 6 µg/mL | 3.75 µg/mL | 5.88 µg/mL | 3.88 µg/mL | 5.25 µg/mL (≈ 9.47 µM) | 4.88 µg/mL (≈ 8.8 µM) | 5 µg/mL (≈ 9.02 µM) | 3.5 µg/mL (≈ 6.31 µM) | 1.3 fold | 13.5 fold | 1.6 fold | 1.5 fold | 92.6% | 34.0% | 20.9% | fraction unbound [1]: 0.625; fraction unbound [2]: 0.625 to 0.791; Binding estimate from in vitro microdialysis (human serum): 76.8%
